Literature values in patent US20210030918A1, “COATING OF FIBERS WITH DIPEPTIDE NANOSTRUCTURES USING ULTRASONIC CAVITATION” (Ramot at Tel-Aviv University Ltd., priority 2019, published 2021).

- aqueous solubility: poor
SMILES: COc1cc(/C=C/C(=O)CC(=O)/C=C/c2ccc(O)c(OC)c2)ccc1O [Curcumin, (1E,6E)-1,7-bis(4-hydroxy-3-methoxyphenyl)-1,6-heptadiene-3,5-dione]
